The values below come from ChEMBL document CHEMBL4706479, “Novel Aryloxyethyl Derivatives of 1-(1-Benzoylpiperidin-4-yl)methanamine as the Extracellular Regulated Kinases 1/2 (ERK1/2) Phosphorylation-Preferring Serotonin 5-HT Receptor-Biased Agonists with Robust Antidepressant-like Activity” (J Med Chem, 2019).

Converted amounts (≈) assume the structure as drawn. The source made the active and inactive calls. The rule behind the calls is not given here.

Series [1] addresses T1, Adrenergic receptor alpha-1 (Rattus norvegicus, UniProt P15823+P23944+P43140).
T1 sequence (P15823 whole entry): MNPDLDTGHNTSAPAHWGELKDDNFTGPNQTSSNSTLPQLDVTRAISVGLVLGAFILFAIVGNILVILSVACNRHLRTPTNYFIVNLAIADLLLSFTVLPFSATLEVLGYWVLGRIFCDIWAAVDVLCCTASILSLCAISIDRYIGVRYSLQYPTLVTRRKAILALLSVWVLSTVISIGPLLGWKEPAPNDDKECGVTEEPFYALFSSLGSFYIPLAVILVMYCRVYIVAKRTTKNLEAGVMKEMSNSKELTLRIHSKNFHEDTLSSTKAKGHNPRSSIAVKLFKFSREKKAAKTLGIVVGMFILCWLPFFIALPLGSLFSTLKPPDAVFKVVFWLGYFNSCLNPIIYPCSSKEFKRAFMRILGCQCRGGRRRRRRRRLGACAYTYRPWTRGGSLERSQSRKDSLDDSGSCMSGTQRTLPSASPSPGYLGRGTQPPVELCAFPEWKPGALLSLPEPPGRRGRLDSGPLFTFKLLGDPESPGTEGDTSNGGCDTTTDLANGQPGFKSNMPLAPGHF
T1 sequence (P23944 whole entry): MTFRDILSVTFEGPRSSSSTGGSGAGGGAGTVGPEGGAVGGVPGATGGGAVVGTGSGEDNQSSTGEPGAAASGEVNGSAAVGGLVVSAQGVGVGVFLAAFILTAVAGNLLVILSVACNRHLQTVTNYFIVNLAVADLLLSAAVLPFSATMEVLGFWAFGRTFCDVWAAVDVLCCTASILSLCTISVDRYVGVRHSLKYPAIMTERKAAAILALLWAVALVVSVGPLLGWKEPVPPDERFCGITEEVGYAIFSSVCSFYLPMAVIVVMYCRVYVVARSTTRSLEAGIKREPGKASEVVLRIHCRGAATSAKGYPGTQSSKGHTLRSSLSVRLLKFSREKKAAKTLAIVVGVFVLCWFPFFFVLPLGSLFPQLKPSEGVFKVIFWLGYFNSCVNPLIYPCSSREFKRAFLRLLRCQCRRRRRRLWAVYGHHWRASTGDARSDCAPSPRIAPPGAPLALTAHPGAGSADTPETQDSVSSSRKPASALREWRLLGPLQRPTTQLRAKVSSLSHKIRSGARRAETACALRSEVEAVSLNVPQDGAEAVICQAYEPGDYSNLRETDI
T1 sequence (P43140 whole entry): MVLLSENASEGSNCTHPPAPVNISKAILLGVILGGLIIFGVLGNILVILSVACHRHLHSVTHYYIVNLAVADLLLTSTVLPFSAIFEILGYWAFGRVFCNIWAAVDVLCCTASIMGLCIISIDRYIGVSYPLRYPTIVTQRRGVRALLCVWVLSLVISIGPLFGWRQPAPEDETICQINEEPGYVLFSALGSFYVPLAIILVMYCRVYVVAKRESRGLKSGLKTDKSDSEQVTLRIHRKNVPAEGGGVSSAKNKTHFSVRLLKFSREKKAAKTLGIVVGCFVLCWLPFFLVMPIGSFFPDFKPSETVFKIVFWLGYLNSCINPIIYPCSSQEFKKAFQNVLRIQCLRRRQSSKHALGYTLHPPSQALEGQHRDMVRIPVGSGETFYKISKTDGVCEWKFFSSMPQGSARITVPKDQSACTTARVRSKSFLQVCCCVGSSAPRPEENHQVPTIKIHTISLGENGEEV
In words: Displacement of [3H]-prazosin from alpha1 adrenergic receptor in rat cortex measured after 30 mins by microbeta2 scintillation counting method. In kind it is tissue-based. Background: Displacement assays read how much labelled ligand stays bound in the presence of the test substance.

The target of series [2] is Muscarinic acetylcholine receptor M3 (Homo sapiens) (UniProt P20309). In words: Inhibition of muscarinic M3 receptor (unknown origin) at 10 uM relative to control.
The target in series [3] is D(3) dopamine receptor (Homo sapiens) (UniProt P35462). In words: Inhibition of dopamine D3 receptor (unknown origin) at 1 uM relative to control.
Series [4] has as its target Cannabinoid receptor 1 (Homo sapiens) (UniProt P21554). The series is described as follows: Inhibition of cannabinoid receptor 1 (unknown origin) at 10 uM relative to control.
In series [5] the target is Sodium-dependent dopamine transporter (Homo sapiens) (UniProt Q01959). The series is described as follows: Inhibition of dopamine transporter (unknown origin) at 10 uM relative to control.
Series [6] concerns the target 5-hydroxytryptamine receptor 7 (Homo sapiens) (UniProt P34969). In words: Inhibition of 5-HT7 (unknown origin) at 1 uM relative to control.
Series [7] deals with Alpha-2A adrenergic receptor (Homo sapiens) (UniProt P08913). The series is described as follows: Inhibition of adrenergic alpha-2A receptor (unknown origin) at 1 uM relative to control.
For series [8], the target named is Alpha-1A adrenergic receptor (Homo sapiens) (UniProt P35348). The series is described as follows: Inhibition of adrenergic alpha-1A receptor (unknown origin) at 1 uM relative to control.
The target in series [9] is Muscarinic acetylcholine receptor M2 (Homo sapiens) (UniProt P08172). The series is described as follows: Inhibition of muscarinic M2 receptor (unknown origin) at 10 uM relative to control.
Series [10] concerns Rattus norvegicus. In words: In vivo biased agonist activity at 5-HT1A receptor in rat prefrontal brain cortex assessed as increase in ERK1/2 phosphorylation levels at 0.04 to […], po measured at 15 mins by Alphalisa assay. In kind it is functional, organism-based. Conditions: dose lower 0.04 mg/kg, dose upper […]. A general note: In Alpha technology, singlet oxygen from a donor bead excites a nearby acceptor bead.

The target of series [11] is CYP3A4 (Homo sapiens, UniProt P08684). The series is described as follows: Inhibition of human recombinant CYP3A4 at 10 uM relative to control. The format is ADME.
Series [12] has as its system Rattus norvegicus. The series is described as follows: Antidepressant-like activity in Wistar rat assessed as maximum effective dose causing reduction in immobility time after oral administration with compound 60 mins prior to testing and measured for 5 mins test period by Porsolt-forced swim test. The format is functional. Conditions: time 65 min; 1.083 h.
A short description of series [13]: Aqueous solubility of compound in pH 7.4 PBS buffer at 200 uM. In kind it is physicochemical.
Series [14] has as its target T2, hERG (KCNH2) (Homo sapiens, UniProt Q12809). The series is described as follows: Displacement of [3H]-dofetilide from human ERG (unknown origin) at 10 uM relative to control. Conditions: probe [3H]-dofetilide.
Series [15] addresses T2, hERG (KCNH2). The series is described as follows: Inhibition of human ERG at 0.1 uM by patch clamp technique relative to control. On the technique in general: Patch clamp records ionic current or voltage across a cell membrane.
For series [16], the system named is Rattus norvegicus. In words: Antidepressant-like activity in Wistar rat assessed as minimum effective dose causing reduction in immobility time after oral administration with compound 15 mins prior to testing and measured for 5 mins test period by Porsolt-forced swim test. In kind it is functional. The settings on record: 20 min, read-out: MED.
The target in series [17] is 5-hydroxytryptamine receptor 1D (Homo sapiens) (UniProt P28221). The series is described as follows: Inhibition of 5-HT1D (unknown origin) at 1 uM relative to control.
The target in series [18] is 5-hydroxytryptamine receptor 2B (Homo sapiens) (UniProt P41595). In words: Inhibition of 5-HT2B (unknown origin) at 10 uM relative to control.
Series [19] in a line: in vitro. Conditions: human, Caco-2, pH 6.5.
The nature of series [20]: Toxicity in Wistar rat assessed as effect on flat body posture at 0.04 to […], po observed after 60 mins post treatment. In kind it is organism-based. The settings on record: in vivo, 1 h, dose 0.04-2.5 mg/kg.
Series [21] is described as follows: Aqueous solubility of compound in simulated gastric fluid at 200 uM. In kind it is physicochemical.

T2 sequence (Q12809 whole entry): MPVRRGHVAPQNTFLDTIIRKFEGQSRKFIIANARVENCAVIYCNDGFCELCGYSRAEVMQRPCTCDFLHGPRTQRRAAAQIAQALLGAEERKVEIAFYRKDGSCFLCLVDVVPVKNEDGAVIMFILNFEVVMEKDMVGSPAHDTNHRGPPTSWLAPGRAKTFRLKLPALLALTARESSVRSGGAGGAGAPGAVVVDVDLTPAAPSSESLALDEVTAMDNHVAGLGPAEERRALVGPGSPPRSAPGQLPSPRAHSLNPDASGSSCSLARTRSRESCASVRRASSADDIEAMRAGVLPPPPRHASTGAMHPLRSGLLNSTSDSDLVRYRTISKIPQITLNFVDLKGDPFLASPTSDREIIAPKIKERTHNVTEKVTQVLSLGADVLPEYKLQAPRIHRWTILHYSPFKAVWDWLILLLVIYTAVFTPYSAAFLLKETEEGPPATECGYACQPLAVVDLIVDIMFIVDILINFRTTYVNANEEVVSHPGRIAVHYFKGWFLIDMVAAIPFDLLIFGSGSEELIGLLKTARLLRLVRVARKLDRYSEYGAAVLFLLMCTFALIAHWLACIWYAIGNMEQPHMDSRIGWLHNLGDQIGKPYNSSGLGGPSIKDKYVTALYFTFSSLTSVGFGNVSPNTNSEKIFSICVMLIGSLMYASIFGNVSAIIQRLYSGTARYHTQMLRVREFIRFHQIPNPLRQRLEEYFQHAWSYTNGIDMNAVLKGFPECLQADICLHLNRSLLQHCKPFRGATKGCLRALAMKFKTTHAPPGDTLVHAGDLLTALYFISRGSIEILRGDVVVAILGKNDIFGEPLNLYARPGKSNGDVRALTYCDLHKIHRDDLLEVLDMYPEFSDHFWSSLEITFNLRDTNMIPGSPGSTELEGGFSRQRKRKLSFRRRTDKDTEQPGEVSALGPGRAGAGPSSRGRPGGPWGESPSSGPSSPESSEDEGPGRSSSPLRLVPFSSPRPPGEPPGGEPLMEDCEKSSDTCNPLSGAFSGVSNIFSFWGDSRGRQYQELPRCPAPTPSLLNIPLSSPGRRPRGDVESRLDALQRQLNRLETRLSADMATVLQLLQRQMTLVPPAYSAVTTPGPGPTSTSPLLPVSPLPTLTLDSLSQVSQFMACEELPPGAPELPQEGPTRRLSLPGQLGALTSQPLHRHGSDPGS
Sequence of 5-hydroxytryptamine receptor 2B (Homo sapiens) (P41595 whole entry): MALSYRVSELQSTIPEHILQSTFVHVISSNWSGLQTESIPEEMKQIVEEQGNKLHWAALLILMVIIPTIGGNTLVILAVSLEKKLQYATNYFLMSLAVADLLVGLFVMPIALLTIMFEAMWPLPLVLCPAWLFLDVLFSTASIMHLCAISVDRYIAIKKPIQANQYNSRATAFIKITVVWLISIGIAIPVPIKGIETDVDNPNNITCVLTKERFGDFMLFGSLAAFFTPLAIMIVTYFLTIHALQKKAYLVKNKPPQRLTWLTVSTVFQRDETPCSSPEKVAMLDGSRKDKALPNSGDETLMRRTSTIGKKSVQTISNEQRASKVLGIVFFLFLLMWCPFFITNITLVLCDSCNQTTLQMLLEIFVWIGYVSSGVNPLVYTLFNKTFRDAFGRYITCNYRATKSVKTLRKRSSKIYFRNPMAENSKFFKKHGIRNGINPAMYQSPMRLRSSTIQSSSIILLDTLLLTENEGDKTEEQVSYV
Sequence of 5-hydroxytryptamine receptor 7 (Homo sapiens) (P34969 whole entry): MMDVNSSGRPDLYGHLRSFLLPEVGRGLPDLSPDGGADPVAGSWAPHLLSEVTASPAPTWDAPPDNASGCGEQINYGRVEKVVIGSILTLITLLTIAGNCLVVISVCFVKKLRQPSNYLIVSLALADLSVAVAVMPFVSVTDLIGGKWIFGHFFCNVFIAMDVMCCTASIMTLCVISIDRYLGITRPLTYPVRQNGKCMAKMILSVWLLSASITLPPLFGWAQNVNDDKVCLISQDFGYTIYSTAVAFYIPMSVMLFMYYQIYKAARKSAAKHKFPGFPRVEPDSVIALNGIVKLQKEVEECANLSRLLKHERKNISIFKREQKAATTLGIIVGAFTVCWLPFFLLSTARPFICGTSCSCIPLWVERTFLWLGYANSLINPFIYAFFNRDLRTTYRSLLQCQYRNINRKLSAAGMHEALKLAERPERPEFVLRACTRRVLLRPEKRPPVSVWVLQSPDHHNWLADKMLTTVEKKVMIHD
Sequence of Muscarinic acetylcholine receptor M2 (Homo sapiens) (P08172 whole entry): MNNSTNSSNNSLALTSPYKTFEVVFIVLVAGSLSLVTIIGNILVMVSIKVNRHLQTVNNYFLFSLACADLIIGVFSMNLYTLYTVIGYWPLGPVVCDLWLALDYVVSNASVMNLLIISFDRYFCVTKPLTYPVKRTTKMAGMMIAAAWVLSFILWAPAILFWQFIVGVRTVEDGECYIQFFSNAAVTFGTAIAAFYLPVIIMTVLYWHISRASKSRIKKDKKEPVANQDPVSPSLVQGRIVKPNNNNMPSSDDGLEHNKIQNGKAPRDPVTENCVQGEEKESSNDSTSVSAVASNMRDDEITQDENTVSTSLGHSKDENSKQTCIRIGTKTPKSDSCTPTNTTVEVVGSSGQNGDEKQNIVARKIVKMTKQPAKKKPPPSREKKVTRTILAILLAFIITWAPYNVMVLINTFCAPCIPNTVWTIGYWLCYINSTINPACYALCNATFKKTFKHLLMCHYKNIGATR
Sequence of Alpha-2A adrenergic receptor (Homo sapiens) (P08913 whole entry): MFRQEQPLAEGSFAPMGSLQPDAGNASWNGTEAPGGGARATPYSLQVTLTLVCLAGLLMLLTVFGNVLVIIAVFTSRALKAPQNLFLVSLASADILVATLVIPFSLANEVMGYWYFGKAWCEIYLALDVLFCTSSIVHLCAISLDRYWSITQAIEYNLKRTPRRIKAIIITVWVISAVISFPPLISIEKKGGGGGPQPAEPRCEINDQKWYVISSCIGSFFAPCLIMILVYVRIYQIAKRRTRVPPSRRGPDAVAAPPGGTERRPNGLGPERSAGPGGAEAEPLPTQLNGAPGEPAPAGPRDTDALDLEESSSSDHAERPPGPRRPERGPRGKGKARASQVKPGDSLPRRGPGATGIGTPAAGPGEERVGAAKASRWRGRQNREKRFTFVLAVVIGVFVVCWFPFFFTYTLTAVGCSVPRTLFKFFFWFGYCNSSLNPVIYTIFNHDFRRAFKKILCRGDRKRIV
Sequence of Muscarinic acetylcholine receptor M3 (Homo sapiens) (P20309 whole entry, looked up): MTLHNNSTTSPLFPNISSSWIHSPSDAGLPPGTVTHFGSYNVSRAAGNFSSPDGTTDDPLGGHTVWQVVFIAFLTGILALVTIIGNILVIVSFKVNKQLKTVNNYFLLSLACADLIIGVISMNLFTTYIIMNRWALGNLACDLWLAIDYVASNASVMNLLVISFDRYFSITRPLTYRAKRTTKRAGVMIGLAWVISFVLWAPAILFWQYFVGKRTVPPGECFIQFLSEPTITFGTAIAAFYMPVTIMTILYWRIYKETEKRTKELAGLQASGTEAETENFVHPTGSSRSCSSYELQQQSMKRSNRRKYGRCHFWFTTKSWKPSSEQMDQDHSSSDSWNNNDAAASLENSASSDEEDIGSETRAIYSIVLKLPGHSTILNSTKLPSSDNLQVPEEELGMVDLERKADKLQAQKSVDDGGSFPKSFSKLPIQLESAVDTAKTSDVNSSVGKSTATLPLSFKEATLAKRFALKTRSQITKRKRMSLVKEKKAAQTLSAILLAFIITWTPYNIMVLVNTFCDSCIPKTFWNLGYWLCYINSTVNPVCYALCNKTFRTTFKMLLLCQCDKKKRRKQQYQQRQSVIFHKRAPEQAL
Sequence of CYP3A4 (P08684 whole entry): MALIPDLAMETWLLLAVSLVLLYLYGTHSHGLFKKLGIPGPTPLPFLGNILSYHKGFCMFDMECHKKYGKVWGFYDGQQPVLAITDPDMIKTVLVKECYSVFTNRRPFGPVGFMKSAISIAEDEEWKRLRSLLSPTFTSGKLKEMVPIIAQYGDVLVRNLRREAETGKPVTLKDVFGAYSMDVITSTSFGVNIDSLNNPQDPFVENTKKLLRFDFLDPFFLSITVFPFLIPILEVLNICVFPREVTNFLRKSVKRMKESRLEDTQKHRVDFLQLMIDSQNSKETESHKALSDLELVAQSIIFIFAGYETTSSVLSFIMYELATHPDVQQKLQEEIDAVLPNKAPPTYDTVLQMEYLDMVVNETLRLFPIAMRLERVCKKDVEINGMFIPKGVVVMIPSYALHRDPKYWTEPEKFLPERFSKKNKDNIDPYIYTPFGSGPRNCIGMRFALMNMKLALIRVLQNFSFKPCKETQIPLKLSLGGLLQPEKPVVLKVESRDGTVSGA
Sequence of Alpha-1A adrenergic receptor (Homo sapiens) (P35348 whole entry): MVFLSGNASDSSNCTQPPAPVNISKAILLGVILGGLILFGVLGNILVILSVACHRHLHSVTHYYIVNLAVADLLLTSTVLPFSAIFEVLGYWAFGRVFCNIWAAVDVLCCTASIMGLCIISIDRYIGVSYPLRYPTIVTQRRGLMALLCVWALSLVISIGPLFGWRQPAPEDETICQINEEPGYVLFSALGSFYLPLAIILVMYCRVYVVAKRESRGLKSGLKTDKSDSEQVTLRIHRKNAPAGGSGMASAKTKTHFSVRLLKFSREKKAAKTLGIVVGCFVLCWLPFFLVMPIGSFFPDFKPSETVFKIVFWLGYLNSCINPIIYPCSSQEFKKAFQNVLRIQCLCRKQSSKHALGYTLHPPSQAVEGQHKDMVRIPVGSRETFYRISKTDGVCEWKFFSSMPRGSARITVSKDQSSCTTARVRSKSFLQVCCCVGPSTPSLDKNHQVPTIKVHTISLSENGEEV
Sequence of D(3) dopamine receptor (Homo sapiens) (P35462 whole entry): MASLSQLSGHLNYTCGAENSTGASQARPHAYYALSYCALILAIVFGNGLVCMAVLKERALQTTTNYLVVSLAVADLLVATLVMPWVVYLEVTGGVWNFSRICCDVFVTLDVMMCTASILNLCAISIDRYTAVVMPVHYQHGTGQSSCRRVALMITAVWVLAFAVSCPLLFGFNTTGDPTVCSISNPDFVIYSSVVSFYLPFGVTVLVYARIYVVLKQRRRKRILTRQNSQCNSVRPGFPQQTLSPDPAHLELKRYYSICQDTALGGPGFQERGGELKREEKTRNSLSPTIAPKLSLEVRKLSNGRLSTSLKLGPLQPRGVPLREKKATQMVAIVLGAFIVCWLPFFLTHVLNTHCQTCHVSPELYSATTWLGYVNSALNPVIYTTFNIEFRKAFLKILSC

Turning to `O=C(c1ccc(F)c(Cl)c1)N1CCC(F)(CNCCOc2ccccn2)CC1`, the pKi (commonly the Ki on a negative log10 scale, so that one unit is a factor of ten) in series [1] amounted to 6.78. The inhibition – broadly, the drop in the measured response relative to a control, in per cent – in series [2] was 9.7%; in series [3], 39.1%; in [4] it was 0.4%; in series [5], 20.4%; in series [6] it was 13.2%; in series [7] it was 29.9%. Moreover, the inhibition in [8] is 87.6%; in series [9] it was 6.3%; in [17] it was 25.5%; in series [18] it was 39.7%. In addition, the result in series [10] was Active. For the same molecule, the inhibition at 10 µM was 23.2% in series [11] and 16.2% in [14]. In addition, the ED in [12] stood at 2.5 mg/kg. The solubility (commonly how much of the substance goes into solution per volume) at 200 µM in series [13] was 192 µM (≈ 78.8 µg/mL); in [21] it was 200 µM (≈ 82 µg/mL). Besides, in series [15], the inhibition at 0.1 µM amounted to 0.1%. The minimal effective dose in series [16] was 0.16 mg/kg. In [19], the Papp A→B (as a rule, how fast a substance crosses the layer from the apical side) is 25.9 ×10⁻⁶ cm/s. Also, the Activity entry in [20] is recorded as “Non-Toxic”.
